Each structure is given as a SMILES string.

human GluN1/GluN2B NMDA receptors, sequence (Q13224 27-1484, other chains not shown): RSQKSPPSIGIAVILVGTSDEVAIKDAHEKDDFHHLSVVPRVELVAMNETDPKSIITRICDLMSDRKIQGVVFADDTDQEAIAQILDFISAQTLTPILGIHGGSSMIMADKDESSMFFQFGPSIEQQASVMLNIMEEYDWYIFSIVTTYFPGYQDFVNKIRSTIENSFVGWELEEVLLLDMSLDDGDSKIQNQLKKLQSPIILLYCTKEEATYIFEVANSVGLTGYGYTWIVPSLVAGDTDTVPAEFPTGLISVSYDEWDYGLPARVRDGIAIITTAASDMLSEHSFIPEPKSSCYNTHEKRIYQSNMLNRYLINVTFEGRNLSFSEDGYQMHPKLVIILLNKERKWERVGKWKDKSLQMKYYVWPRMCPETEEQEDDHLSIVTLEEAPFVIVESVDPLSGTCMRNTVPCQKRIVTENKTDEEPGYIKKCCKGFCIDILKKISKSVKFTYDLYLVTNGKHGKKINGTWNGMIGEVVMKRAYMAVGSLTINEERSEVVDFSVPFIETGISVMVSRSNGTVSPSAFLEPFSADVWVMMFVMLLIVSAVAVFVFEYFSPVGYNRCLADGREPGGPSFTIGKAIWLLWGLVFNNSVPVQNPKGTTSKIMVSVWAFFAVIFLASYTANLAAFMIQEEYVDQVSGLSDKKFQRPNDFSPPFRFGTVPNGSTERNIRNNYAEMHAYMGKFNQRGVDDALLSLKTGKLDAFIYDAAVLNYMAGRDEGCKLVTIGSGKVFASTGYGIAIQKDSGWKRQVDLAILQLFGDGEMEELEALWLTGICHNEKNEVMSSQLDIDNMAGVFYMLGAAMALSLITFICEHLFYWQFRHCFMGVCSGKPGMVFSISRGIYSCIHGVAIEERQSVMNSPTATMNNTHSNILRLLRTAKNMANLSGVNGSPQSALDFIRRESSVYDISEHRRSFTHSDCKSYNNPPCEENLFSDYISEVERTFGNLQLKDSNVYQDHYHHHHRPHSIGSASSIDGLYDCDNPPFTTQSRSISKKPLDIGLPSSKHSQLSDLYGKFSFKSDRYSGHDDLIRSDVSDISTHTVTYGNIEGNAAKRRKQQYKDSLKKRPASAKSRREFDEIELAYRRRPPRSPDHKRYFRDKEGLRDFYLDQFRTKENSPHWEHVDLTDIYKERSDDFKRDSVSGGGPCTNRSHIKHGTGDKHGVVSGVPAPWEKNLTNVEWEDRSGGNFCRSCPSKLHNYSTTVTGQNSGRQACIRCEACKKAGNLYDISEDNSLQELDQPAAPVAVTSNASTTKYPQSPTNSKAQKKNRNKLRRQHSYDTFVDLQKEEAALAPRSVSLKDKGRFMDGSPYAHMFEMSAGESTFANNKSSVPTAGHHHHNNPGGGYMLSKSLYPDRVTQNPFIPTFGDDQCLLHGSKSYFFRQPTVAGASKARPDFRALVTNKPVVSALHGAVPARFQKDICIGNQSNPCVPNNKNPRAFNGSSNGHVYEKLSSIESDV

The target in one test is human GluN1/GluN2B NMDA receptors (Homo sapiens, UniProt Q05586+Q13224). Description: Cell-based calcium flux (FLIPR) assay on cloned human NR1/NR2B ion channels expressed in mammalian cells. To be noted: standard assay; glutamate at ~EC80; FLIPR calcium flux. The gist of the method:
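Calcium influx followed by FLIPR fluorescence after 5 min compound exposure and a further 5 min co-agonist challenge: 10 μM glycine with glutamate at ~EC80 (standard) or EC40 (HTS).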
For orientation: IC50 means the concentration that gives 50% inhibition. As to `COCc1cnc(OCc2cn(-c3ccc(F)c(C(F)(F)F)c3)nn2)nc1` [Example 437, 2-[[1-[4-Fluoro-3-(trifluoromethyl)phenyl]triazol-4-yl]methoxy]-5-(methoxymethyl)pyrimidine], the IC50 turned out to be 0.071 µM. In the case of `Fc1ccc(-n2cc(COc3ncc(Cl)cn3)nn2)cc1F` [Example 600, 5-Chloro-2-[[1-(3,4-difluorophenyl)triazol-4-yl]methoxy]pyrimidine], the IC50 was 0.238 µM. For `COCc1cnc(OCc2cn(-c3ccc(F)c(C(C)(F)F)c3)nn2)nc1` [Example 569, 2-[[1-[3-(1,1-Difluoroethyl)-4-fluoro-phenyl]triazol-4-yl]methoxy]-5-(methoxymethyl)pyrimidine], the IC50 is 0.089 µM. Still for that read-out and setting: the value for `Cc1nc(OCc2cn(-c3ccc(F)c(C)c3F)nn2)ncc1F` [Example 649, 2-[[1-(2,4-Difluoro-3-methyl-phenyl)triazol-4-yl]methoxy]-5-fluoro-4-methyl-pyrimidine] was 0.152 µM; that for `CC(F)(F)c1cc(-n2cc(COc3ncc(C(C)(O)C(F)(F)F)cn3)nn2)ccc1F` (racemic) [Example 565, (R/S)-2-[2-[[1-[3-(1,1-Difluoroethyl)-4-fluoro-phenyl]triazol-4-yl]methoxy]pyrimidin-5-yl]-1,1,1-trifluoro-propan-2-ol] was 0.308 µM; that for `CC(=O)c1cnc(OCc2cn(-c3ccc(C)c(OC(F)F)c3)nn2)nc1` [Example 522, 1-[2-[[1-[3-(Difluoromethoxy)-4-methyl-phenyl]triazol-4-yl]methoxy]pyrimidin-5-yl]ethanone] was 0.093 µM.

On to `CNC(=O)c1cnc(OCc2cn(-c3ccc(F)c(C(F)(F)F)c3)nn2)nc1` [Example 452, 2-[[1-[4-Fluoro-3-(trifluoromethyl)phenyl]triazol-4-yl]methoxy]-N-methyl-pyrimidine-5-carboxamide], for which the half-inhibitory concentration (IC50) stood at 0.218 µM. `CC(C)c1ccnc(OCc2cn(-c3ccc(Cl)c(C(F)F)c3)nn2)n1` [Example 623, 2-[[1-[4-Chloro-3-(difluoromethyl)phenyl]triazol-4-yl]methoxy]-4-isopropyl-pyrimidine]: the IC50 stood at 0.129 µM.

Consider `CCc1cnc(OCc2cn(-c3cc(C)c(F)cc3F)nn2)nc1` [Example 655, 2-[[1-(2,4-Difluoro-5-methyl-phenyl)triazol-4-yl]methoxy]-5-ethyl-pyrimidine], for which the concentration for half-maximal inhibition (IC50) is 0.507 µM.

`CC(F)(F)c1cc(-n2cc(COc3ncccc3F)nn2)ccc1F` [Example 555, 2-[[1-[3-(1,1-Difluoroethyl)-4-fluoro-phenyl]triazol-4-yl]methoxy]-3-fluoro-pyridine]: the IC50 was 0.265 µM. Turning to `CNCc1ccnc(OCc2cn(-c3ccc(F)c(OC(F)F)c3)nn2)n1` [Example 520, 1-(2-((1-(3-(Difluoromethoxy)-4-fluorophenyl)-1H-1,2,3-triazol-4-yl)methoxy)pyrimidin-4-yl)-N-methylmethanamine], the half-inhibitory concentration (IC50) came to 0.672 µM. For the compound `CC(C)(O)c1cnc(OCc2cn(-c3cc(F)ccc3F)nn2)nc1` [Example 604, 2-[2-[[1-(2,5-Difluorophenyl)triazol-4-yl]methoxy]pyrimidin-5-yl]propan-2-ol], the IC50 amounted to 79.7 µM.

Take `Fc1ccc(-n2cc(COc3cccc(C(F)(F)F)n3)nn2)cc1OC(F)F` [Example 395, 2-[[1-[3-(Difluoromethoxy)-4-fluoro-phenyl]triazol-4-yl]methoxy]-6-(trifluoromethyl)pyridine]: the IC50 came to 0.919 µM. Take `Fc1ccc(-n2cc(COc3cnc(-c4cccs4)cn3)nn2)cc1OC(F)F` [Example 397, 2-[[1-[3-(Difluoromethoxy)-4-fluoro-phenyl]triazol-4-yl]methoxy]-5-(2-thienyl)pyrazine]: the IC50 was found to be 10.7 µM.

Staying with this test, now noted: standard assay; human GluN1/GluN2B, calcium flux (FLIPR), glutamate ~EC80.
Regarding `Fc1ccc(-n2cc(COc3nccc(N4CCCCC4)n3)nn2)cc1OC(F)F` [Example 169, 2-[[1-[3-(Difluoromethoxy)-4-fluoro-phenyl]triazol-4-yl]methoxy]-4-(1-piperidyl)pyrimidine], the IC50 stood at 0.031 µM. In the case of `CCc1cnc(OCc2cn(-c3ccc(Cl)c(C(F)F)c3)nn2)nc1` [Example 32, 2-[[1-[4-Chloro-3-(difluoromethyl)phenyl]triazol-4-yl]methoxy]-5-ethyl-pyrimidine], the IC50 worked out at 0.002 µM. Take `Cc1ccc(-n2cc(COc3ncc(F)cn3)nn2)cc1` [Example 257, 5-Fluoro-2-[[1-(p-tolyl)triazol-4-yl]methoxy]pyrimidine]: the IC50 came to 2.69 µM. `CC(F)(F)c1cc(-n2cc(COc3ncc(Cl)cn3)nn2)ccc1F` [Example 69, 5-Chloro-2-[[1-[3-(1,1-difluoroethyl)-4-fluoro-phenyl]triazol-4-yl]methoxy]pyrimidine]: the IC50 amounted to 0.009 µM. In the case of `Cc1ccnc(OC(C)c2cn(-c3ccc(Cl)c(OC(F)F)c3)nn2)n1` (racemic) [Example 59, (R/S)-2-[1-[1-[4-Chloro-3-(difluoromethoxy)phenyl]triazol-4-yl]ethoxy]-4-methyl-pyrimidine], the IC50 stood at 0.04 µM. On to `FC(F)(F)c1cnc(OCc2cn(-c3ccc(Cl)cc3)nn2)nc1` [Example 226, 2-[[1-(4-Chlorophenyl)triazol-4-yl]methoxy]-5-(trifluoromethyl)pyrimidine], for which the IC50 was found to be 0.155 µM.

Regarding `COCc1ccnc(OCc2cn(-c3ccc4c(c3)CCC4)nn2)n1` [Example 368, 2-[(1-Indan-5-yltriazol-4-yl)methoxy]-4-(methoxymethyl)pyrimidine], the IC50 is 0.114 µM.

Turning to `Cc1cnc(NCc2cn(-c3ccc(F)c(C(C)(F)F)c3)nn2)nc1` [Example 206, N-[[1-[3-(1,1-Difluoroethyl)-4-fluoro-phenyl]triazol-4-yl]methyl]-5-methyl-pyrimidin-2-amine], the IC50 is 0.219 µM. For `Cc1cnc(OCc2cn(-c3cccc(C(C)C)c3)nn2)nc1` [Example 266, 2-[[1-(3-Isopropylphenyl)triazol-4-yl]methoxy]-5-methyl-pyrimidine], the IC50 was found to be 0.01 µM. The same measure, in the same setting: under `Cc1cccc(-n2cc(COc3ncc(C)c(N)n3)nn2)c1` [Example 254, 5-Methyl-2-[[1-(m-tolyl)triazol-4-yl]methoxy]pyrimidin-4-amine] stands 0.151 µM. Turning to `CC(C)c1cc(-n2cc(COc3ncc(C(C)(C)O)cn3)nn2)ccc1F` [Example 179, 2-[2-[[1-(4-Fluoro-3-isopropyl-phenyl)triazol-4-yl]methoxy]pyrimidin-5-yl]propan-2-ol], the concentration for half-maximal inhibition (IC50) is 0.029 µM.

For `Cc1cc(C)cc(-n2cc(COc3ncc(F)cn3)nn2)c1` [Example 361, 2-[[1-(3,5-Dimethylphenyl)triazol-4-yl]methoxy]-5-fluoro-pyrimidine], the concentration for half-maximal inhibition (IC50) was 0.587 µM. On the same count and under the same terms, under `Cc1cnc(OCc2cn(-c3cccc(C(F)(F)F)c3)nn2)nc1` [Example 286, 5-Methyl-2-[[1-[3-(trifluoromethyl)phenyl]triazol-4-yl]methoxy]pyrimidine] stands 0.012 µM; under `C[C@H](Oc1ncc(Cl)cn1)c1cn(-c2ccc(Cl)c(OC(F)F)c2)nn1` [Example 379, 5-Chloro-2-[(1S)-1-[1-[4-chloro-3-(difluoromethoxy)phenyl]triazol-4-yl]ethoxy]pyrimidine], 0.575 µM.

On to `Cc1cnc(OCc2cn(-c3ccc4c(c3)OC(F)(F)O4)nn2)nc1C` [Example 359, 2-[[1-(2,2-Difluoro-1,3-benzodioxol-5-yl)triazol-4-yl]methoxy]-4,5-dimethyl-pyrimidine], for which the IC50 came to 0.009 µM. With `CC(F)(F)c1cccc(-n2cc(COc3nccc(N)n3)nn2)c1` [Example 316, 2-[[1-[3-(1,1-Difluoroethyl)phenyl]triazol-4-yl]methoxy]pyrimidin-4-amine], the IC50 is 0.183 µM. Still for that read-out and setting: the value for `Cc1cnc(OCc2cn(-c3cncc(C)c3)nn2)nc1` [Example 176, 5-Methyl-2-[[1-(5-methyl-3-pyridyl)triazol-4-yl]methoxy]pyrimidine] was 0.929 µM; that for `Fc1cnc(NCc2cn(-c3cccc(C(F)F)c3)nn2)nc1` [Example 197, N-[[1-[3-(Difluoromethyl)phenyl]triazol-4-yl]methyl]-5-fluoro-pyrimidin-2-amine] was 0.652 µM. Same read-out and setting: the value for `Fc1cnc(OCc2cn(-c3cccc(F)c3)nn2)nc1` [Example 229, 5-Fluoro-2-[[1-(3-fluorophenyl)triazol-4-yl]methoxy]pyrimidine] was 2.98 µM. Same read-out and setting: under `CC(F)(F)c1cc(-n2cc(COc3ncc(F)cn3)nn2)ccc1F` [Example 80, 2-[[1-[3-(1,1-Difluoroethyl)-4-fluoro-phenyl]triazol-4-yl]methoxy]-5-fluoro-pyrimidine] stands 0.032 µM; under `CC(C)c1cccc(-n2cc(COc3ncc(F)cn3)nn2)c1` [Example 263, 5-Fluoro-2-[[1-(3-isopropylphenyl)triazol-4-yl]methoxy]pyrimidine], 0.227 µM. With `FC(F)Oc1cc(-n2cc(COc3ncc(N4CCC4)cn3)nn2)ccc1Cl` [Example 391, 5-(Azetidin-1-yl)-2-((1-(4-chloro-3-(difluoromethoxy)phenyl)-1H-1,2,3-triazol-4-yl)methoxy)pyrimidine], the IC50 was 0.022 µM. Same read-out and setting: under `CC(C)(O)c1cnc(OCc2cn(-c3ccc(F)c(C4CC4)c3)nn2)nc1` [Example 180, 2-[2-[[1-(3-Cyclopropyl-4-fluoro-phenyl)triazol-4-yl]methoxy]pyrimidin-5-yl]propan-2-ol] stands 0.133 µM; under `COc1cnc(OCc2cn(-c3ccc(Cl)c(OCCF)c3)nn2)nc1` [Example 193, 2-[[1-[4-Chloro-3-(2-fluoroethoxy)phenyl]triazol-4-yl]methoxy]-5-methoxy-pyrimidine], 0.089 µM. Still for that read-out and setting: under `FC(F)Oc1cc(-n2cc(CNc3ccccn3)nn2)ccc1Cl` [Example 2, N-((1-(4-Chloro-3-(difluoromethoxy)phenyl)-1H-1,2,3-triazol-4-yl)methyl)pyridin-2-amine] stands 0.213 µM; under `COc1cnc(O[C@H](C)c2cn(-c3ccc(Cl)c(OC(F)F)c3)nn2)nc1` [Example 377, 2-[(1R)-1-[1-[4-Chloro-3-(difluoromethoxy)phenyl]triazol-4-yl]ethoxy]-5-methoxy-pyrimidine], 0.01 µM.

For the origin of these results see US10233173B2, “Substituted 1,2,3-triazoles as NR2B-selective NMDA modulators” (JANSSEN PHARMACEUTICA NV, priority 2016, dated 2019).
